These results are taken from patent US12617773B2, “Azetidin-3-ylmethanol derivatives as CCR6 receptor modulators” (Idorsia Pharmaceuticals Ltd, priority 2020, dated 2026).

Each structure is given as a SMILES string.

One assay has as its target T1, human CCR6 (Homo sapiens, UniProt P51684).
T1 construct: expressed in transfected cells; host or cells: HEK-293
T1 sequence (P51684 1-374): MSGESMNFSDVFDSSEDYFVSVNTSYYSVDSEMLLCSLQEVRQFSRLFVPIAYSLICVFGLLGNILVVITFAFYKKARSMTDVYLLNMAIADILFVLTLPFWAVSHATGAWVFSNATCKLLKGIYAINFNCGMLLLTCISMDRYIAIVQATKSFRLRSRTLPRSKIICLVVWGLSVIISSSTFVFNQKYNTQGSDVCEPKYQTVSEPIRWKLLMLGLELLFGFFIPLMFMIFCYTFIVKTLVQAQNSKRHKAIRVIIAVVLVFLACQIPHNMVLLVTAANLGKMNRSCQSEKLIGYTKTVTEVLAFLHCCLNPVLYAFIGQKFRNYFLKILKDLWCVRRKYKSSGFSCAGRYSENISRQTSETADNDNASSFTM
In words: FLIPR assay (inhibition of CCL20-induced calcium signal). The class given is cell-based. The conditions noted are these: FLIPR IC50 (nM), HEK-293 cells expressing human CCR6; mean values where determined several times. The gist of the method:
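IC50 values come from baseline-corrected peak calcium fluorescence after agonist. The agonist was CCL20 at 10 nM final, added to engineered human CCR6 HEK-293 cells following a 30-min, room-temperature, dark preincubation with serially diluted compound. Readings were taken in a fluorometric imaging plate reader.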
Regarding `CCc1ccc([C@](O)(c2cncc(N3CC4CC(C3)O4)c2)C2(C)CN(C)C2)cc1` [Example 243], the IC50 is 211 nM.

Staying with this assay, now noted: HEK-293 cells expressing human CCR6; mean values where determined several times; read-out: FLIPR IC50.
For the compound `CN1CC(C)([C@](O)(c2ccc(C3(C(F)(F)F)CC3)cc2)c2cncc(N3CCCC3)c2)C1` [Example 187], the IC50 amounted to 15.8 nM.
On the same count and under the same terms, with `CC(=O)N1CC[C@H](Cc2nc(-c3cncc([C@@](O)(c4ccc(C(C)C)cc4)C4(C)CN(C)C4)c3)no2)C1` [Example 454, 1-[(R)-3-(3-{5-[(R)-(1,3-Dimethyl-azetidin-3-yl)-hydroxy-(4-isopropyl-phenyl)-methyl]-pyridin-3-yl}-[1,2,4]oxadiazol-5-ylmethyl)-pyrrolidin-1-yl]-ethanone] the figure was 103 nM.
On the same count and under the same terms, for `COC(=O)N1CCC(c2nc(-c3cncc([C@@](O)(c4ccc(C(C)C)cc4)C4(C)CN(C)C4)c3)no2)CC1` [Example 378] the value was 54.9 nM.
On the same count and under the same terms, for `CC(=O)N1CCC(O)(Cc2nc(-c3cncc([C@@](O)(c4ccc(C(C)C)cc4)C4(C)CN(C)C4)c3)no2)CC1` [Example 459] the value was 440 nM.
On to `CC(C)c1ccc([C@](O)(c2cncc(OC3CCC(O)CC3)c2)C2(C)CN(C)C2)cc1` (stereo partly drawn) [Example 261, 4-{5-[(R)-(1,3-Dimethyl-azetidin-3-yl)-hydroxy-(4-isopropyl-phenyl)-methyl]-pyridin-3-yloxy}-cyclohexanol], for which the IC50 came to 206 nM.
For `CC(C)c1ccc([C@](O)(c2cncc(N3CC[C@@](C)(CO)C3)c2)C2(C)CN(C)C2)cc1` [Example 282], the IC50 was determined as 44.3 nM.
Same read-out and setting: with `CC(C)c1ccc([C@](O)(c2cncc(C#CC(C)(O)c3ccnc(C(F)(F)F)n3)c2)C2(C)CN(C)C2)cc1` (single isomer, unassigned) [Example 652] the figure was 10.9 nM; with `CC(C)c1ccc([C@](O)(c2cnnc(OC3CCC(F)(F)C3)c2)C2(C)CN(C)C2)cc1` (stereo partly drawn) [Example 393, (R)-[6-(3,3-Difluoro-cyclopentyloxy)-pyridazin-4-yl]-(1,3-dimethyl-azetidin-3-yl)-(4-isopropyl-phenyl)-methanol], 25.1 nM.
For `CC(C)c1ccc([C@](O)(c2cncc(C#CC3(O)CCCc4cccnc43)c2)C2(C)CN(C)C2)cc1` (stereo partly drawn) [Example 42], the IC50 was 41.5 nM.
The same measure, in the same setting: with `COc1cc(C(C)(O)C#Cc2cncc([C@@](O)(c3ccc(C(C)C)cc3)C3(C)CN(C)C3)c2)nc(C)n1` (single isomer, unassigned) [Example 631] the figure was 79.5 nM.
On to `CC(C)c1ccc([C@](O)(c2cncc(-c3nc(C4CCN(S(C)(=O)=O)CC4)no3)c2)C2(C)CN(C)C2)cc1` [Example 527, (R)-(1,3-Dimethyl-azetidin-3-yl)-(4-isopropyl-phenyl)-{5-[3-(1-methanesulfonyl-piperidin-4-yl)-[1,2,4]oxadiazol-5-yl]-pyridin-3-yl}-methanol], for which the IC50 was found to be 74.3 nM.
On the same count and under the same terms, with `CC(C)c1ccc([C@](O)(c2cncc(N3CCC(O)CC3)c2)C2(C)CN(C)C2)cc1` [Example 181] the figure was 295 nM.
In the case of `CC(=O)N1CCC(CCc2cncc([C@@](O)(c3ccc(C(C)C)cc3)C3(C)CN(C)C3)c2)CC1` [Example 636], the IC50 turned out to be 107 nM.
Still for that read-out and setting: for `CC(=O)N1CCC(c2nc(-c3cncc([C@@](O)(c4ccc(OC(C)C)cc4)C4(C)CN(C)C4)c3)no2)CC1` [Example 555] the value was 986 nM; for `CC(C)c1ccc([C@](O)(c2cncc(-c3noc(C4CCC(=O)N4c4ccccc4)n3)c2)C2(C)CN(C)C2)cc1` (stereo partly drawn) [Example 357], 26.1 nM.
Take `CC(C)c1ccc([C@](O)(c2cncc(C#CC3CCN(C(=O)OC(C)(C)C)CC3)c2)C2(C)CN(C)C2)cc1` [Example 407]: the IC50 amounted to 51.8 nM.
As for `CC(C)c1ccc([C@](O)(c2cnnc(N3CC(C)(C)CC3=O)c2)C2(C)CN(C)C2)cc1` [Example 435], the concentration for half-maximal inhibition (IC50) was found to be 175 nM.
Still for that read-out and setting: for `CC(C)c1ccc([C@](O)(c2cncc(CCC3(O)CC3)c2)C2(C)CN(C)C2)cc1` [Example 54] the value was 66.9 nM; for `CC(=O)N1CC[C@@H](c2nc(-c3cncc([C@@](O)(c4ccc(C(C)C)cc4)C4(C)CN(C)C4)c3)no2)C1` [Example 349], 113 nM; for `CC(=O)N1CCCC(O)(c2nc(-c3cncc([C@@](O)(c4ccc(C(C)C)cc4)C4(C)CN(C)C4)c3)no2)C1` (stereo partly drawn) [Example 456], 201 nM.
Same read-out and setting: with `Cc1ncc(C(C)(O)CCc2cncc([C@@](O)(c3ccc(C(C)C)cc3)C3(C)CN(C)C3)c2)s1` (stereo partly drawn) [Example 647] the figure was 76.3 nM.
Still for that read-out and setting: with `CC(C)Cc1ccc([C@](O)(c2cncc(-c3noc(C(C)(C)O)n3)c2)C2(C)CN(C)C2)cc1` [Example 573] the figure was 75.9 nM.
As for `CC(C)c1ccc([C@](O)(c2cncc(N3CC4OCCC4C3=O)c2)C2(C)CN(C)C2)cc1` (mixture of isomers) [Example 210], the half-inhibitory concentration (IC50) amounted to 326 nM.
Same read-out and setting: with `CC(C)c1ccc([C@](O)(c2cncc(C3CC3C(C)(C)O)c2)C2(C)CN(C)C2)cc1` (stereo partly drawn) [Example 328, 2-(2-{5-[(R)-(1,3-Dimethyl-azetidin-3-yl)-hydroxy-(4-isopropyl-phenyl)-methyl]-pyridin-3-yl}-cyclopropyl)-propan-2-ol] the figure was 187 nM; with `CC(C)c1ccc([C@](O)(c2cnnc(N3CC(c4cccc(C(C)C)n4)CC3=O)c2)C2(C)CN(C)C2)cc1` (stereo partly drawn) [Example 682, 1-{5-[(R)-(1,3-Dimethyl-azetidin-3-yl)-hydroxy-(4-isopropyl-phenyl)-methyl]-pyridazin-3-yl}-4-(6-isopropyl-pyridin-2-yl)-pyrrolidin-2-one], 7.98 nM; with `CC(C)c1ccc([C@](O)(c2cncc(C#CC3(O)CCC3)c2)C2(C)CN(C)C2)cc1` [Example 21], 47.9 nM.
For the compound `CC(C)c1ccc([C@](O)(c2cncc(-c3noc(CN4CC(=O)N(C)C4=O)n3)c2)C2(C)CN(C)C2)cc1` [Example 488], the IC50 amounted to 382 nM.
The same measure, in the same setting: for `CC(C)c1ccc([C@](O)(c2cnnc(C#CC(C)(C)N3CCCC3=O)c2)C2(C)CN(C)C2)cc1` [Example 664] the value was 211 nM; for `CC(C)c1ccc([C@](O)(c2cncc(-c3noc(CN4CC(=O)NC4=O)n3)c2)C2(C)CN(C)C2)cc1` [Example 484], 593 nM.
On to `CC(C)c1ccc([C@](O)(c2cncc(C3CCC(O)CC3)c2)C2(C)CN(C)C2)cc1` (stereo partly drawn) [Example 425, 4-{5-[(R)-(1,3-Dimethyl-azetidin-3-yl)-hydroxy-(4-isopropyl-phenyl)-methyl]-pyridin-3-yl}-cyclohexanol], for which the IC50 was determined as 1730 nM.
`[2H]C([2H])([2H])C(=O)N(C)Cc1nc(-c2cncc([C@@](O)(c3ccc(C(C)C)cc3)C3(C)CN(C)C3)c2)no1` [Example 334]: the IC50 stood at 216 nM.
Take `CC(=O)N1CCC(C(C)(O)C#Cc2cncc([C@@](O)(c3ccc(C(C)C)cc3)C3(C)CN(C)C3)c2)CC1` (stereo partly drawn) [Example 598]: the IC50 is 94.8 nM.
Same read-out and setting: with `CN1CC(C)([C@](O)(c2ccc(OC(F)(F)F)cc2)c2cncc(-c3noc(C(C)(C)O)n3)c2)C1` [Example 545] the figure was 61 nM.
Same read-out and setting: for `CC(C)c1ccc([C@](O)(c2cncc(C#CC(C)(C)N3CCN(C)C3=O)c2)C2(C)CN(C)C2)cc1` [Example 593] the value was 51.6 nM.
Turning to `CC(C)c1ccc([C@](O)(c2cncc(-c3noc(CC(C)(C)O)n3)c2)C2(C)CN(C(C)C)C2)cc1` [Example 337, 1-(3-{5-[(R)-Hydroxy-(1-isopropyl-3-methyl-azetidin-3-yl)-(4-isopropyl-phenyl)-methyl]-pyridin-3-yl}-[1,2,4]oxadiazol-5-yl)-2-methyl-propan-2-ol], the IC50 is 95.1 nM.
In the case of `CC(C)c1ccc([C@](O)(c2cnnc(Oc3ccc4[nH]c(=O)oc4c3)c2)C2(C)CN(C)C2)cc1` [Example 397], the IC50 is 29.1 nM.
Same read-out and setting: for `CC(C)c1ccc([C@](O)(c2cnnc(CCC3(O)CCCc4cccnc43)c2)C2(C)CN(C)C2)cc1` (stereo partly drawn) [Example 418, 8-(2-{5-[(R)-(1,3-Dimethyl-azetidin-3-yl)-hydroxy-(4-isopropyl-phenyl)-methyl]-pyridazin-3-yl}-ethyl)-5,6,7,8-tetrahydro-quinolin-8-ol] the value was 190 nM; for `CC(=O)N1CCC(c2nc(-c3cncc([C@@](O)(c4cc(F)c(C(C)C)c(F)c4)C4(C)CN(C)C4)c3)no2)CC1` [Example 559], 85.6 nM.
As for `COc1cc(C(C)(O)C#Cc2cncc([C@@](O)(c3ccc(C(C)C)cc3)C3(C)CN(C)C3)c2)nc(OC)n1` (single isomer, unassigned) [Example 627], the IC50 was 11.5 nM.
On to `CC(C)c1ccc([C@](O)(c2cncc([C@H]3CCC(C)(O)C3)c2)C2(C)CN(C)C2)cc1` (stereo partly drawn) [Example 296, (3S)-3-(5-((R)-(1,3-dimethylazetidin-3-yl)(hydroxy)(4-isopropylphenyl)methyl)pyridin-3-yl)-1-methylcyclopentan-1-ol], for which the IC50 was determined as 118 nM.
On the same count and under the same terms, for `CC(C)c1ccc([C@](O)(c2cnnc(N3CC(C4CC4)CC3=O)c2)C2(C)CN(C)C2)cc1` (stereo partly drawn) [Example 438] the value was 53.6 nM; for `CC(C)c1ccc([C@](O)(c2cncc(-c3noc(C4CC45CCOCC5)n3)c2)C2(C)CN(C)C2)cc1` (stereo partly drawn) [Example 114], 38 nM; for `CC(C)c1ccc([C@](O)(c2cncc(N3CCC(C)(C)C3)c2)C2(C)CN(C)C2)cc1` [Example 233], 29.7 nM.
On the same count and under the same terms, with `CCC(=O)N1CCC(O)(c2nc(-c3cncc([C@@](O)(c4ccc(C(C)C)cc4)C4(C)CN(C)C4)c3)no2)CC1` [Example 471] the figure was 125 nM.
